Source: patent US8753691B2, “Antiviral colloidal silver composition” (priority 1999, dated 2014)

Tested on: Mycobacterium bovis BCG (TMC 1028)
Type: cell-based

Oc1ccccc1 [phenol]
log reduction (phenol resistance): ≈ 1.81
